Reference: the NIST ThermoML archive (doi:10.1016/j.jct.2012.05.010)
± gives the expanded uncertainty stated by the source.

Assay: refractive index (Na D-line) (dimensionless)
Settings: 293.1 K; 101.33 kPa; Liquid; Standard Abbe refractometry

| refractive index | Structure (SMILES) |
| --- | --- |
| 1.422 ± 0.0004 | CCCCCCCCCCCC [dodecane] |
| 1.4289 ± 0.0004 | CCCCCCCCCCCCCC [tetradecane] |
| 1.4915 ± 0.0004 | CCCc1ccccc1 [propylbenzene] |
| 1.3803 ± 0.0005 | CCCCn1cc[n+](C)c1.F[P-](F)(F)(F)(F)F [1-butyl-3-methylimidazolium hexafluorophosphate] |
